Data: patent US20070117743A1, “New antitumoral compounds” (priority 2003, published 2007)
*1 amine or outer side, *2 acyl side, *3 side chain or, on linkers, in order; H or OH if unused. Where a SMILES comes first, the peptide text is derived from it. Bridges are numbered along the chain shown (N, C = ends). [ ]: non-standard residue; d: D form. The star is where a group is joined. X3 = CN(C)C(=NCCC[C@H](N[*:1])C(=O)[*:2])N(C)c1ccccc1; X2 = CN(C)C(=NCCC[C@H](N[*:1])C(=O)[*:2])N1CCCC1; X1 = CN(C)C(=NCCC[C@H](N[*:1])C(=O)[*:2])N(C)C; d(aIle) = CC[C@H](C)[C@@H](N)C(=O)O; d(aThr) = C[C@@H](O)[C@@H](N)C(=O)O; Hexanoyl(5-Me) = CC(C)CCCC(=O)*; Dhb = C/C=C(\N)C(=O)O

Columns and labels:
HT-29 = experiment: SRB colorimetric assay of cell growth and viability, HT-29; assay type: cell-based, human; conditions: 48 hours exposure, SRB; for GI50: read-out: GI50 HT-29; for CC50: read-out: LC50 HT-29
Excerpt: (§1) The finality of this assay is to interrupt the growth of a “in vitro” tumor cell culture by means a continued exhibition of the cells to the sample to be testing.
(§2) This form of the assay employs 96 well cell culture microplates of 9 mm diameter (Faircloth, 1988; Mosmann, 1983). Most of the cell lines are obtained from American Type Culture Collection (ATCC) derived from different human cancer types.
(§3) Cells are maintained in RPMI 1640 10% FBS, supplemented with 0.1 g/l penicillin and 0.1 g/l streptomycin sulfate and then incubated at 37° C., 5% CO2 and 98% humidity. For the experiments, cells were harvested from subconfluent cultures using trypsin and resuspended in fresh medium before plating.
(§4) Cells are seeded in 96 well microtiter plates, at 5×10^3 cells per well in aliquots of 195 μL medium, and they are allowed to attach to the plate surface by growing in drug free medium for 18 hours. Afterward, samples are added in aliquots of 5 μL in a ranging from 10 to 10^−8 μg/mL, dissolved in DMSO:EtOH:PBS (0.5:0.5:99). After 48 hours exposure, the antitumor effect are measured by the SRB methodology: cells are fixed by adding 50 μL of cold 50% (wt/vol) trichloroacetic acid (TCA) and incubating for 60 minutes at 4° C. Plates are washed with deionized water and dried. One hundred μL of SRB solution (0.4% wt/vol in 1% acetic acid) is added to each microtiter well and incubated for 10 minutes at room temperature. Unbound SRB is removed by washing with 1% acetic acid. Plates are air dried and bound stain is solubilized with Tris buffer. Optical densities are read on a automated spectrophotometric plate reader at a single wavelength of 490 nm.
(§5) The values for mean+/− SD of data from triplicate wells are calculated. Some parameters for cellular responses can be calculated: GI=growth inhibition, TGI=total growth inhibition (cytostatic effect) and LC=cell killing (cytotoxic effect).

A-549 = experiment: SRB colorimetric assay of cell growth and viability, A-549; assay type: cell-based, human; conditions: 48 hours exposure, SRB; for GI50: read-out: GI50 A-549; for CC50: read-out: LC50 A-549
Excerpt: as §1, §2, §3, §4, §5

| Structure (SMILES) | TGI HT-29 (HT-29) [Molar] | GI50 (HT-29) [nM] | CC50 (HT-29) [nM] | TGI A-549 (A-549) [Molar] | GI50 (A-549) [nM] | CC50 (A-549) [nM] |
| --- | --- | --- | --- | --- | --- | --- |
| C/C=C1\NC(=O)[C@H](Cc2ccccc2)NC(=O)[C@@H](C(C)C)NC(=O)[C@@H]([C@@H](C)CC)NC(=O)[C@H](NC(=O)[C@H](NC(=O)[C@H](CCCN=C(N(C)C)N(C)C)NC(=O)[C@H]2CCCN2C(=O)[C@H](NC(=O)[C@@H](NC(=O)[C@@H](NC(=O)[C@H](NC(=O)CCCC(C)C)C(C)C)[C@@H](C)O)C(C)C)C(C)C)[C@@H](C)CC)[C@@H](C)OC(=O)[C@H](C(C)C)NC1=O [Compound 89, [N(Me)2,N′(Me)2-Arg^8]-Kahalalide F] ({Hexanoyl(5-Me)}-[dV]TV[dV][dP][X1][d(aIle)][d(aThr)][d(aIle)][dV]F[Dhb]V; ester 8-C) | 3.17E−07 | 63.5 | 571 | 4.44E−07 | 317 | 635 |
| C/C=C1\NC(=O)[C@H](Cc2ccccc2)NC(=O)[C@@H](C(C)C)NC(=O)[C@@H]([C@@H](C)CC)NC(=O)[C@H](NC(=O)[C@H](NC(=O)[C@H](CCCN=C(N(C)C)N(C)c2ccccc2)NC(=O)[C@H]2CCCN2C(=O)[C@H](NC(=O)[C@@H](NC(=O)[C@@H](NC(=O)[C@H](NC(=O)CCCC(C)C)C(C)C)[C@@H](C)O)C(C)C)C(C)C)[C@@H](C)CC)[C@@H](C)OC(=O)[C@H](C(C)C)NC1=O [Compound 90, [N(Me,Ph),N′(ME)2-Arg^8]-Kahalalide F] ({Hexanoyl(5-Me)}-[dV]TV[dV][dP][X3][d(aIle)][d(aThr)][d(aIle)][dV]F[Dhb]V; ester 8-C) | 3.05E−07 |  |  | 4.27E−07 |  |  |
| C/C=C1\NC(=O)[C@H](Cc2ccccc2)NC(=O)[C@@H](C(C)C)NC(=O)[C@@H]([C@@H](C)CC)NC(=O)[C@H](NC(=O)[C@H](NC(=O)[C@H](CCCN=C(N(C)C)N2CCCC2)NC(=O)[C@H]2CCCN2C(=O)[C@H](NC(=O)[C@@H](NC(=O)[C@@H](NC(=O)[C@H](NC(=O)CCCC(C)C)C(C)C)[C@@H](C)O)C(C)C)C(C)C)[C@@H](C)CC)[C@@H](C)OC(=O)[C@H](C(C)C)NC1=O [Compound 91, [N(CH2)4,N′(Me)2-Arg^8]-Kahalalide F] ({Hexanoyl(5-Me)}-[dV]TV[dV][dP][X2][d(aIle)][d(aThr)][d(aIle)][dV]F[Dhb]V; ester 8-C) | 3.12E−07 | 62.4 | 562 | 4.37E−07 | 312 | 624 |
